Test results: PubChem BioAssay (NCI)
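Here, GI50 denotes the concentration required for 50% inhibition of growth. TGI denotes the concentration required for complete inhibition of growth.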

Tests used:
Assay in all cases: inhibition of tumour cell growth, NCI panel, 384-well format
[1] = tested on: 786-0 renal
[2] = tested on: DU-145 prostate
[3] = tested on: IGROV1 ovarian
[4] = tested on: K-562 leukemia
[5] = tested on: LOX IMVI melanoma
[6] = tested on: M14 melanoma
[7] = tested on: MALME-3M melanoma
[8] = tested on: MCF7 breast
[9] = tested on: MOLT-4 leukemia
[10] = tested on: OVCAR-8 ovarian
[11] = tested on: RXF 393 renal
[12] = tested on: SK-MEL-5 melanoma
[13] = tested on: UACC-62 melanoma

## CS(=O)(=O)c1ccc(C(=O)Nc2ccc(Cl)c(-c3ccccn3)c2)c(Cl)c1
[1]
  GI50: 22.8 µM
  TGI: 58.3 µM
[2]
  GI50: 42.5 µM
  TGI: > 86.8 µM
[3]
  GI50: 56.6 µM
  TGI: > 100 µM
[4]
  GI50: 16.3 µM
  TGI: 31.1 µM
[5]
  GI50: 47.2 µM
  TGI: > 100 µM
[6]
  GI50: 47.5 µM
  TGI: > 100 µM
[7]
  GI50: 19 µM
  TGI: 61.2 µM
[8]
  GI50: 35.3 µM
  TGI: > 82.8 µM
[9]
  GI50: 21.8 µM
  TGI: 46.3 µM
[10]
  GI50: 45.7 µM
  TGI: 99.4 µM
[11]
  GI50: 22.7 µM
  TGI: 51.9 µM
[12]
  GI50: 10.8 µM
  TGI: > 29.3 µM
[13]
  GI50: 44.4 µM
  TGI: > 79.3 µM
